Where a name gives a salt, the structure may show the parent alone.
What was measured:
[1] = antipentylenetetrazol test (pentylenetetrazol 125 mg/kg s.c.); assay type: in vivo; details: sc; SLC ddY male mouse, 20-24 g; pentylenetetrazol preliminarily administered at 125 mg/kg s.c.; read-out: ED50 anti-pentylenetetrazol test
Experimental: (§1) *^1 test animal: SLC ddY male mouse, 20-24 g of body weight
*^2 pentylenetetrazol was preliminarily administered at a dose of 125
mg per 1 kg of body weight in subcutaneous injection.

[2] = rotarod performance test; assay type: in vivo; details: SLC ddY male mouse, 20-24 g
From the text: as §1

[3] = acute lethality (LD50); details: in vivo; DS male mouse, 20-24 g

Row | Structure (SMILES) | ED50 [1] | ED50 [2] | LD50 [3]
1 | Cc1nnc2n1-c1ccc(Cl)cc1C(c1ccccc1Cl)OC2 (centres unmarked) | 0.74 mg/kg | 30.6 mg/kg | > 1000 mg/kg
2 | CN(C)C=C1N=C2COC(c3ccccc3Cl)c3cc(Cl)ccc3N2C1=O (centres unmarked) | 1.6 mg/kg | 73.5 mg/kg | > 1000 mg/kg
3 | CN1CCN(C=C2N=C3COC(c4ccccc4Cl)c4cc(Cl)ccc4N3C2=O)CC1 (centres unmarked) | 3.28 mg/kg | > 100 mg/kg | > 1000 mg/kg
4 | Cc1nnc2n(c1=O)-c1ccc(Cl)cc1C(c1ccccc1Cl)OC2 (centres unmarked) | 0.75 mg/kg | 24.5 mg/kg | > 1000 mg/kg
5 | CN1C(=O)CN=C(c2ccccc2)c2cc(Cl)ccc21 [diazepam, reference compound] | 1.2 mg/kg | 13.4 mg/kg | –
6 | NCc1nnc2n1-c1ccc(Cl)cc1C(c1ccccc1Cl)OC2 (centres unmarked) [drawing 27 (H, hydrobromide)] | 2.49 mg/kg | 24.1 mg/kg | > 1000 mg/kg
7 | CCOC1(c2ccccc2Cl)OCc2nnc(CN)n2-c2ccc(Cl)cc21 (centres unmarked) [drawing 27 (OC2H5, 1/2 succinate)] | 1.14 mg/kg | 33.5 mg/kg | > 1000 mg/kg
8 | CN1CCN=C(c2ccccc2)c2cc(Cl)ccc21 [medazepam, reference compound] | 4.76 mg/kg | 104 mg/kg | > 1000 mg/kg

From patent publication US4297280A, “4,1-Benzoxazepines” (Shionogi & Co., Ltd., priority 1978, dated 1981)
